Measured values reported in US5998654A, “Retinoic acid receptor antagonist compounds and methods” (Ligand Pharmaceuticals Incorporated, priority 1997, dated 1999).

What was measured:
[1] = target: T1, RARβ (Homo sapiens, UniProt P10826); experiment: co-transfection assay, antagonist activity on RARβ; format: cell-based; parameters: expressed in transfected cells; host or cells: CV-1 cells (African green monkey kidney); conditions: CV-1 cells, in presence of known RAR agonist TTNPB; for IC50: read-out: IC50 antagonist potency, RARβ
T1 sequence (P10826 1-448 isoform P10826-2): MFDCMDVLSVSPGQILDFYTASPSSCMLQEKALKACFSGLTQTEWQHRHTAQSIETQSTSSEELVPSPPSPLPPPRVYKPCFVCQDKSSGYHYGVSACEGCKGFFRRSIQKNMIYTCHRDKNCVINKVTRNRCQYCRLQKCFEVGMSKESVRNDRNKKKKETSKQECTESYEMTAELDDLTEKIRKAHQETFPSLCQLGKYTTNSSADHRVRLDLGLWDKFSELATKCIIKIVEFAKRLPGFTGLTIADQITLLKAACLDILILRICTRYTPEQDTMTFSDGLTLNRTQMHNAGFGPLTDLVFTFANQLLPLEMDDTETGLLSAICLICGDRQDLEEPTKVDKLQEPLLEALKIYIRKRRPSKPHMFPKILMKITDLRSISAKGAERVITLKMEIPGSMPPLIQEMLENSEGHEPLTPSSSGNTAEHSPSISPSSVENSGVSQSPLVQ
Text: (§1) This assay is described in further detail in U.S. Pat. Nos. 4,981,784 and 5,071,773, the disclosures of which are incorporated herein by reference.
(§2) In the co-transfection assay, a cloned cDNA for an IR (e.g., human RARα:, RARβ, RXRγ) under the control of a constitutive promoter (e.g., the SV 40 promoter) is introduced by transfection (a procedure to induce cells to take up foreign genes) into a background cell substantially devoid of endogenous IRs. This introduced gene directs the recipient cells to make the IR protein of interest. A second gene is also introduced (co-transfected) into the same cells in conjunction with the IR gene. This second gene, comprising the cDNA for a reporter protein, such as firefly luciferase (LUC), is controlled by an appropriate hormone responsive promoter containing a hormone response element (HRE). This reporter plasmid functions as a reporter for the transcription-modulating activity of the target IR. Thus, the reporter acts as a surrogate for the products (mRNA then protein) normally expressed by a gene under control of the target receptor and its native hormone.
(§3) The co-transfection assay can detect small molecule agonists or antagonists of target IRs. Exposing the transfected cells to an agonist ligand compound increases reporter activity in the transfected cells. This activity can be conveniently measured, e.g., by increasing luciferase production, which reflects compound-dependent, IR-mediated increases in reporter transcription. To detect antagonists, the co-transfection assay is carried out in the presence of a constant concentration of an agonist to the target IR (e.g., all-trans retinoic acid for RARα) known to induce a defined reporter signal. Increasing concentrations of a suspected antagonist will decrease the reporter signal (e.g., luciferase production). The co-transfection assay is therefore useful to detect both agonists and antagonists of specific IRs. Furthermore, it determines not only whether a compound interacts with a particular IR, but whether this interaction mimics (agonizes) or blocks (antagonizes) the effects of the native regulatory molecules on target gene expression, as well as the specificity and strength of this interaction.
(§4) CV-1 cells (African green monkey kidney fibroblasts) were cultured in the presence of Dulbecco's Modified Eagle Medium (DMEM) supplemented with 10% charcoal resin-stripped fetal bovine serum then transferred to 96-well microtiter plates one day prior to transfection.
(§5) To determine RAR and/or RXR agonist activity of the compounds of the present invention, the CV-1 cells were transiently transfected by calcium phosphate coprecipitation according to the procedure of Berger et al., 41 J. Steroid Biochem. Mol. Biol., 733 (1992) with the following receptor expressing plasmids: pRShRARα: Giguere et al., 330 Nature, 624 (1987); pRShRARβ and pRShRARγ, Ishikawa et al., 4 Mol. Endocrin., 837 (1990); pRShRXRα, Mangelsdorf et al., 345 Nature, 224 (1990); and pRSmRXRβ and pRSmRXRγ, Mangelsdorf et al., 6 Genes & Devel., 329 (1992), the disclosures of which are herein incorporated by reference. Each of these receptor expressing plasmids was co-transfected at a concentration of 5 ng/well, along with a basal reporter plasmid at 100 ng/well, the internal control plasmid pRS-β-Gal at 50 ng/well and filler DNA, pGEM at 45 ng/well.
(§6) The basal reporter plasmid D-MTV-LUC (Hollenberg and Evans, 55 Cell, 899 (1988), the disclosure of which is herein incorporated by reference) containing two copies of the TRE-palindromic response element described in Umesono et al., 336 Nature, 262 (1988), the disclosure of which is herein incorporated by reference, was used in transfections for the RARs, and the reporter plasmid CRBPIIFKLUC, which contains an RXRE (retinoid X receptor response element, as described in Mangelsdorf et al., 66 Cell, 555 (1991), the disclosure of which is herein incorporated by reference), was used in transfections for the RXRs.

[2] = target: T2, RARα (Homo sapiens, UniProt P10276); experiment: co-transfection assay, antagonist activity on RARα; format: cell-based; parameters: expressed in transfected cells; host or cells: CV-1 cells (African green monkey kidney); conditions: CV-1 cells, in presence of known RAR agonist TTNPB; for IC50: read-out: IC50 antagonist potency, RARα
T2 sequence (P10276 1-462): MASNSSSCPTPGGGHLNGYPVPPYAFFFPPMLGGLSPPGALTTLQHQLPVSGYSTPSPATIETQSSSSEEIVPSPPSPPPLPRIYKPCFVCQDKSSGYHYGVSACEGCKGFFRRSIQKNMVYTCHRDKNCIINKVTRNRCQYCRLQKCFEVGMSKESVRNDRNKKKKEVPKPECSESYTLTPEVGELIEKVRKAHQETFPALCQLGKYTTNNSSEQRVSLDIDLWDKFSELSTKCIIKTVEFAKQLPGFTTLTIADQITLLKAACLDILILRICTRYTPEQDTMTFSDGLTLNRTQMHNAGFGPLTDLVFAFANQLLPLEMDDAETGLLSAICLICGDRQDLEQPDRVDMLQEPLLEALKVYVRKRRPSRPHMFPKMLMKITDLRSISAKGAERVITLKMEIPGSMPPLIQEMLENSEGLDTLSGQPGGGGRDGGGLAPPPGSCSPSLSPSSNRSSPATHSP
Text: as §1, §2, §3, §4, §5, §6

[3] = target: T1, RARβ; experiment: RAR binding, RARβ; conditions: Kd from IC50 by Cheng-Prussof equation
Protocol: Non-specific binding was defined as that binding remaining in the presence of 500 nM of the appropriate unlabelled compound. At the end of the incubation period, bound from free ligand were separated. The amount of bound tritiated retinoids was determined by liquid scintillation counting of an aliquot (700 μL) of the supernatant fluid or the hydroxylapatite pellet.
After correcting for non-specific binding, IC50 values were determined. […] The IC50 value was determined graphically from a log-logit plot of the data. The Kd values were determined by application of the Cheng-Prussof equation to the IC50 values, the labeled ligand concentration and the Kd of the labeled ligand.

| SMILES | efficacy of antagonist, % of maximal inhibition, RARβ (in parentheses after IC50) [1] | IC50 [1] | efficacy of antagonist, % of maximal inhibition, RARα (in parentheses after IC50) [2] | IC50 [2] | Kd [3] |
| --- | --- | --- | --- | --- | --- |
| CCCOc1c(C(C)(C)C)cc(/C(C)=C/C=C/C(C)=C/C(=O)O)cc1C(C)(C)C [Compound 8, 2E, 4E, 6E-[7-(3,5-Di-t-butyl-4-n-propoxyphenyl)-3-methyl]-octa-2,4,6-trienoic acid] | 85% | 1 nM | 90% | 2 nM | 1 nM |
| C=C(c1ccccc1)c1cc(/C(C)=C/C=C/C(C)=C/C(=O)O)cc(C(C)(C)C)c1 [Compound 17, (2E,4E,6E)-7-[3-t-butyl-5-(1-phenyl-vinyl)-phenyl]-3-methyl-octa-2,4,6-trienoic acid] | 90% | 5 nM | 98% | 2 nM | 3 nM |
| CCCCCOc1c(C(C)(C)C)cc(/C(C)=C/C=C/C(C)=C/C(=O)O)cc1C(C)(C)C [Compound 9, 2E, 4E, 6E-[7-(3,5-Di-t-butyl-4-n-pentoxyphenyl)-3-methyl]-octa-2,4,6-trienoic acid] | 86% | 17 nM | 91% | 5 nM | 5 nM |
| CCCCOc1c(C(C)(C)C)cc(/C(C)=C/C=C/C(C)=C/C(=O)O)cc1C(C)(C)C [Compound 7, 2E, 4E, 6E-[7-(3,5-Di-t-butyl-4-n-butoxyphenyl)-3-methyl]-octa-2,4,6-trienoic acid] | 85% | 4 nM | 90% | 4 nM | 5 nM |
